Results taken from ChEMBL document CHEMBL3638513, “Compounds that are ERK inhibitors” (2013).

Target: Mitogen-activated protein kinase 1 (Mus musculus, UniProt P63085)
Assay: IMAP Assay: Activated ERK2 activity was determined in the IMAP assay format.

Chain of Mitogen-activated protein kinase 1 (P63085 whole entry): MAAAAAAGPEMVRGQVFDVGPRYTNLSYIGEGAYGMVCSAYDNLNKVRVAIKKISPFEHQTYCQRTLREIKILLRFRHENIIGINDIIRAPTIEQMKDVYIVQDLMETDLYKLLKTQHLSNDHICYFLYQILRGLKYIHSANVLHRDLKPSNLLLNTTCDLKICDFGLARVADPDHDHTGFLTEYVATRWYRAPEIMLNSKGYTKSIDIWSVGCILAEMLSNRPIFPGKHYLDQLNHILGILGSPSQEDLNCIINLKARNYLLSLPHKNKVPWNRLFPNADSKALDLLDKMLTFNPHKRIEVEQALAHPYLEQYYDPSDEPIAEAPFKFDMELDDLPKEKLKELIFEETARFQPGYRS

IC50: 18.1 nM
SMILES: COC[C@@]1(C(=O)Nc2ccc3[nH]nc(-c4ccnc(C5CC5)c4)c3c2)CCN(CC(=O)N2CC=C(c3ccc(-c4ncccn4)cc3)CC2)C1
